Laboratory results reported in patent US10874638B2, “Methods and compositions for modulating hormone levels” (priority 2014, dated 2020).

Tests used:
[1] = test system: ovariectomized mature female rats; assay: Ovariectomized mature female rat model; assay type: in vivo; details: restoration mode
Description: Ovariectomized mature female rats are used to characterize primarily bone activity of the compositions provided herein or the individual SERM or SARM compounds. A sham group is used as control. The model can be run in either maintenance mode where the animals are dosed one day after the ovariectomy or restoration mode where the animals are dosed seven to eight weeks after the surgery. The rats are scanned by dual energy x-ray absorptiometry and sorted into experimental groups based upon femoral bone mineral content (BMC). Three dosages of testing compositions/compounds are administered orally once a day for 4, 8, or 12 weeks and estradiol and testosterone are administered subcutaneously to the reference groups. Animals received subcutaneous injections of fluorochrome markers for bone histomorphometric analysis. Alizarian Red S was prepared as a 3% solution and given at a dose of 30 mg/kg at the time of the baseline scan. Calcein was administered 10 days and 3 days prior to necropsy.
Approximately 24 hours after the last dose, blood is collected and the gastrocnemius muscle, plantaris muscle, uterus, clitoral glands, clitoris and inguinal fat pads were isolated, blotted and weighed individually. The left femur and lumbar vertebra L5 are wrapped in saline-soaked gauze and stored at −20° C. for biochemical analysis. The right femur and lumbar vertebrae L3-L4 are collected and stored in 70% ethanol for histomorphometry. The right tibia is collected in formalin for histological analysis. The left tibia is collected on dry ice and stored at −20° C. for measurement of alkaline phosphatase activity.
BMC, bone mineral density (BMD) and bone length are measured by pDEXA on an entire femur. The coefficient of variation for repeated measurement of the isolated femur is less than 0.4% for the BMC and the BMD measurements. […] Serum osteocalcin, a marker for bone turnover, and alkaline phosphatase derived from the tibial periosteum are also measured. Whole femurs are collected for biomechanical analysis and thawed at room temperature prior to testing. Peak load and peak displacement are measured directly from the load cell and the crosshead, respectively. Stiffness is calculated from the slope of the linear region of the load/displacement curve. Lumbar vertebra L5 is also measured in the mechanical testing for bone strength.
Bone histomorphometry is performed to indicate growth of the new bone during the study. The section from the lumbar vertebral bodies is used for histomorphometric indices of cancellous bone, while the sections of the femur mid-shafts are used for histomorphometric indices of cortical bone.
Body weight, gastrocnemius weight and plantaris weight changes are measured indicating anabolic activity of the testing compositions/compounds on skeletal muscle. Inguinal fat pad weight is used as a representative fat pad to assess the effects of the testing compounds on body fat. Clitoral gland and clitoral weights are measured to assess the virilizing effect of drugs.
In the maintenance node of this model, (5R,6S)-6-phenyl-5-[4-(2-pyrrolidin-1-ylethoxy)phenyl]-5,6,7,8-tetrahydronaphthalen-2-ol (Compound 1) was dosed daily at 0 (sham), 0 (OVX), 0.01, 0.05, and 0.25 mg/kg for 8 weeks and 17α-ethynylestradiol was dosed at 0.03 mg/kg/day. […] Micro-computerized tomography (uCT) measured the density and connectivity of the trabecular bone in the femur and pQCT measured at the distal femur.
In the restoration mode of this osteopenic female rat model, 4-(2(R)-(1(S)-hydroxyl-2,2,2-trifluoroethyl)-pyrrolidinyl)-2-trifluoromethylbenzonitrile (Compound 2, Formula I, R^1═CF3, R^2═R^3═H) was dosed at 0 (sham), 0 (OVX), 0.03, 0.3, and 3 mg/kg orally for 12 weeks. […] Compound 2 suppressed cancellous bone turnover while increasing trabecular bone volume and increasing bone mineral density at the lumbar spine.
In the same experiment of Compound 2, another SARM compound, ostarine, was dosed at 0.03, 0.3, and 3 mg/kg/day orally for 12 weeks.

[2] = test system: intact cynomolgus male and female monkeys; assay: Intact cynomolgus monkey model; assay type: in vivo; details: for serum cholesterol decrease, of the corresponding Day −3 values: males and females
Description: Intact cynomolgus male and female monkeys are used to assess of the effects of the compositions provided herein or the individual SERM or SARM compounds on hypothalamic-pituitary-gonadal axis and lipid profile. All animals are dosed via oral or nasol gavage once daily for consecutive days with either vehicle or testing articles of different doses. The first day of dosing is designated Day 1 for all animals. Blood samples are collected for analysis of LH, FSH, T, Estrodiol, total cholesterol, triglycerides, cortisol, and coagulation parameters included prothrombin time (PT) and activated partial thromboplastin time on Days −3 and end of the study.
In this model, Compound 2 was dosed at 0, 5, 50, 150, and 450 mg/kg/day for 14 days. […] In a separate study, the compound was dosed at 0, 3, 10, 30, 120, and 500 mg/kg/day for 30 days. […] Serum testosterone was suppressed in males as indicated by lower 75th, 50th, and 25th percentile values in samples from treated monkeys than vehicle controls.
In this model, Compound 1 was dosed at 0, 1, 5, and 15 mg/kg/day for 3 months.

healthy young men = details: cited from earlier work
[3] = test system: orchidectomized male Sprague-Dawley rat; assay: Orchidectomized mature male rat model
[4] = 0.03, 0.3, 3 mg/kg orally for 12 weeks
[5] = females, 3 to 500 mg/kg/day for 30 days

Structure (SMILES): N#Cc1ccc(N2CCC[C@@H]2[C@H](O)C(F)(F)F)cc1C(F)(F)F [Compound 2, 4-(2(R)-(1(S)-hydroxyl-2,2,2-trifluoroethyl)-pyrrolidinyl)-2-trifluoromethylbenzonitrile]
- activity on the clitoral gland, clitoris or uterus relative to testosterone ([1]; 0.3 mg/kg/day dose): reduced activity
- efficacy on muscle and bone compared with testosterone ([1]; 0.3 mg/kg/day dose): more efficacious
- bone mineral density at the lumbar spine [1, 4]: increasing
- cancellous bone turnover [1, 4]: suppressed
- cortical bone mass, density, strength, stiffness and periosteal bone formation rates [1, 4]: significantly increased
- gastrocnemius muscle weight, plantaris muscle weight and body weight [1, 4]: increased
- inguinal fat pad weight [1, 4]: without affecting
- trabecular bone volume [1, 4]: increasing
- triglycerides ([2]; Day 14, 5 to 450 mg/kg/day for 14 days): without dose dependent changes
- serum cholesterol decrease, of the corresponding Day −3 values ([2]; Day 14, 5 mg/kg/day for 14 days): 71%
- serum cholesterol decrease, of the corresponding Day −3 values ([2]; Day 14, 50 mg/kg/day for 14 days): 81%
- serum cholesterol decrease, of the corresponding Day −3 values ([2]; Day 14, 150 mg/kg/day for 14 days): 79%
- serum cholesterol decrease, of the corresponding Day −3 values ([2]; Day 14, 450 mg/kg/day for 14 days): 84%
- effect on the hypothalamic-pituitary-gonadal axis ([2]; female and male monkeys, 3 to 500 mg/kg/day for 30 days): suppressive effect
- serum FSH [2, 5]: significantly suppressed
- serum estradiol [2, 5]: significantly suppressed
- serum testosterone ([2]; males, lower 75th, 50th, 25th percentile values than vehicle controls, 30 days): suppressed
- serum FSH ([2]; sentence follows the male results, 30 days): not significantly altered
- safety and pharmacokinetic profiles (healthy young men): favorable safety and pharmacokinetic profiles
- exposure versus dose ([3]; 0.03 to 100 mg/kg/day for 14 days, rat): dose proportional exposure
- efficacy (relative to sham) in sex accessory and sebaceous glands ([3]; at doses that maintained levator ani weights at sham equivalent levels): lower efficacy
- serum LH ([3]; at high doses): suppressed serum LH below sham-equivalent levels
- AUC24 ([3]; at the dose of 2 mg/kg/day, rat): 0.2
- activity in musculoskeletal endpoints ([3]; restoration mode, 0.03 to 100 mg/kg/day for 14 days): positive activity
- dose reducing the elevated LH levels in castrate rats ([3]; restoration mode, 14 days): ≥ 10 mg/kg/day
- dose that maintained levator ani weight at sham-equivalent levels ([3]; restoration mode, 14 days): 2 mg/kg/day
- tissue selectivity toward the muscle endpoint ([3]; restoration mode, 14 days): tissue selective activity
